The text below walks through data of patent publication US20040038199A1, “Phenotyping assay and reagents therefor” (priority 2000, published 2004).

Read-outs that look alike come from different tables or passages of the source.

The term EC50 denotes the concentration at which the effect is half-maximal.

Format in all cases: cell-based, HIV-1
Assay [1] relates to Virus 1 (recombinant generated from plasma of Subject 1 by FPH or RVA). As to the kind of experiment: MTT-reduction cell viability drug susceptibility assay, recombinant Virus 1 (FPH or RVA). The settings on record: for fold resistance: relative to WT (HXB2); for fold higher susceptibility when generated by RVA than when generated by FPH: virus 1. As for the experimental part: (§1) As previously discussed, recombinant virus produced by the method of the present invention may be used in drug sensitivity assays. A suitable drug sensitivity assay is described in Pauwels et al. (1988) and is an MTT-reduction colorimetric cell viability assay. Cells infected with the virus are plated into the wells of tissue culture plates and incubated with the anti-viral drug to be tested. After incubation, MTT (3-(4,5-dimethylthiazol-2-yl)-2,5diphenyltetrazolium bromide) is added to the cell culture. Only live cells produce the blue formazan product after incubation with MTT. This product is detectable by reading the optical absorbance at 540-590 nm, so the absorbance reading gives a measure of the cells which have been protected from the virus by the anti-viral drug. Viral drug resistance results in a decrease in surviving cells and a decrease in absorbance at 540-590 nm.
(§2) In this experiment, plasma from three HIV-1 infected subjects experiencing virological failure on PI-containing therapy regimens was used as the basis for the FPH to generate recombinant virus. […] Virus from Subject 2 had L10I, M46I, I50V and a Lp1′F mutation at the p1/p6 protease cleavage site, all of which are mutations typical of high level APV resistance.
(§3) The LTR was added to the nested products by PMR prior to transfection. The PMR reactions successfully added the LTR sequences to the nested products (FIG. 9). The first round RT-PCR reactions were also used as templates to generate products for RVA by cotransfection with pHXBΔCSPRTC. Triplicate PCR products were cotransfected into MT4 cells with the linearised plasmid pHXBTOPO1, in the case of the PMR products, and with linearised pHXBΔCSPRTC in for the RVA products. Viral cytopathic effect was observed and titratable virus was harvested in the supernatants. No virus was isolated from virus 2 using FPH and only one of the triplicate cultures from virus 3 yielded infectious virus. All of the RVA cultures produced virus.
(§4) In order to determine whether the extra sequences in the FPH recombinants contain determinants of susceptibility, the recombinant viruses were tested against several drugs. Drug susceptibility was determined by the 3-(4,5dimethylthiazol-2-yl)-2,5-diphenyltetrazolium bromide (MTT)-reduction calorimetric cell viability assay described previously (Pauwels et al. 1988; Robinson et al., 2000). Changes in susceptibility were defined as fold increase in IC50 relative to WT (HXB2). Nucleotide sequences were determined using ABI 3700 capillary sequencers and Big Dye terminators. […] Virus 1 also gave a 2.2-fold (Table 3A) or 4-fold (Table 3B) higher susceptibility to IDV and 2.9-fold (Table 3A) or 3.2-fold higher susceptibility to APV when generated by RVA.

Assay [2] deals with Virus 2 (recombinant generated from plasma of Subject 2 by RVA). The assay is described as follows: MTT-reduction cell viability drug susceptibility assay, recombinant Virus 2 (RVA). The note with it: for EC50 / fold resistance: Table 3A, Virus 2, method RVA; for fold resistance: relative to WT (HXB2); for resistance, fold higher than wild-type: Virus 2 obtained via the RVA. On the procedure:
as §1, §2, §3, §4
In general terms: Tetrazolium dyes change colour on reduction, which living cells bring about.

Assay [3] deals with Virus 3 (recombinant generated from plasma of Subject 3 by FPH or RVA). As to the kind of experiment: MTT-reduction cell viability drug susceptibility assay, recombinant Virus 3 (FPH or RVA). The settings on record: for fold resistance: relative to WT (HXB2); for difference in susceptibility between the two techniques (RVA vs FPH): virus 3. As for the experimental part:
as §1, §2, §3, §4

Assay [4] concerns HXB2. As to the kind of experiment: MTT-reduction cell viability drug susceptibility assay, wild type HXB2 (Table 3A). The settings on record: for fold resistance: HXB2 wild type (reference). As for the experimental part:
as §1, §4

For assay [5], the system named is Virus 3.1, 3.2, 3.3 (recombinants by FPH or RVA). The assay is described as follows: MTT-reduction cell viability drug susceptibility assay, viruses 3.1-3.3 (Table 3B). The settings on record: for fold resistance: Table 3B, relative to WT. On the procedure:
as §1, §3, §4

Assay [6] relates to Virus 4.1, 4.2, 4.3 (recombinants by RVA). The assay is described as follows: MTT-reduction cell viability drug susceptibility assay, viruses 4.1-4.3 (Table 3B). The note with it: for EC50: Human immunodeficiency virus 1, Table 3B; for fold resistance: Table 3B, relative to WT. On the procedure: as §1, §3, §4
For assay [7], the system named is Virus 5.1 (FPH), 5.2 (RVA). The assay is described as follows: MTT-reduction cell viability drug susceptibility assay, viruses 5.1 and 5.2 (Table 3B). The settings on record: for EC50: Human immunodeficiency virus 1, Table 3B; for fold resistance: Table 3B, relative to WT. On the procedure: as §1, §3, §4
Assay [8] deals with WT (HXB2) generated by FPH or RVA. As to the kind of experiment: MTT-reduction cell viability drug susceptibility assay, WT (Table 3B). The note with it: for EC50: Human immunodeficiency virus 1, HXB2, Table 3B; for fold resistance: Table 3B. On the procedure: as §1, §4
Setting [9] is: Table 3A, Virus 1, method FPH, read-out: Drug EC50.
The mark [10] stands for this setting: Table 3A, Virus 1, method RVA, read-out: Drug EC50.

As to `CC(C)CN(C[C@@H](O)[C@H](Cc1ccccc1)NC(=O)O[C@H]1CCOC1)S(=O)(=O)c1ccc(N)cc1` [APV, amprenavir], the concentration for a half-maximal effect (EC50) in assay [1] (Human immunodeficiency virus 1, Table 3A, Virus 1, method RVA, read-out: Drug EC50) came to 128 nM; in assay [1] (Human immunodeficiency virus 1, read-out: Drug EC50, Table 3A, Virus 1, method FPH), 366 nM; in assay [2] (Human immunodeficiency virus 1), 1070 nM; in assay [3] (Human immunodeficiency virus 1, Table 3A, Virus 3, method FPH) it was 718 nM; in assay [3] (Human immunodeficiency virus 1, Table 3A, Virus 3, method RVA) it was 396 nM; in assay [4] (Human immunodeficiency virus 1, HXB2 wild type) it was 67.5 nM. Besides, the concentration for a half-maximal effect (EC50) in assay [5] (Human immunodeficiency virus 1, Table 3B, Virus 3.1, method FPH, read-out: Drug EC50) is 865 nM; in assay [5] (Human immunodeficiency virus 1, Table 3B, Virus 3.2, method FPH, read-out: Drug EC50), 691 nM; in assay [5] (Human immunodeficiency virus 1, Table 3B, Virus 3.2, method RVA, read-out: Drug EC50), 245 nM; in assay [5] (Human immunodeficiency virus 1, Table 3B, Virus 3.3, method FPH, read-out: Drug EC50) it was 619 nM; in assay [5] (Human immunodeficiency virus 1, read-out: Drug EC50, Table 3B, Virus 3.1, method RVA), 211 nM; in assay [6] (Virus 4.1, method RVA), greater than 2500 nM. Also, the concentration giving a half-maximal response (EC50) in assay [6] (Virus 4.2, method RVA) was 2010 nM; in assay [6] (Virus 4.3, method RVA), greater than 2500 nM; in assay [7] (Virus 5.1, method FPH), 1570 nM; in assay [7] (Virus 5.2, method RVA), 802 nM; in assay [8] (method FPH), 113 nM; in assay [8] (method RVA), 121 nM. Besides, the fold resistance result in assay [1] (Table 3A, Virus 1, method FPH) was “(5.4) fold”; in assay [1] (Table 3A, Virus 1, method RVA), “(1.9) fold”; in assay [2], “(16) fold”; in assay [3] (Table 3A, Virus 3, method FPH) it was “(11) fold”; in assay [3] (Table 3A, Virus 3, method RVA) it was “(5.9) fold”; in assay [4], “(1.0) fold”. In addition, the fold resistance entry in assay [5] (Virus 3.1, method FPH) is “(7.7) fold”; in assay [5] (Virus 3.1, method RVA), “(1.7) fold”; in assay [5] (Virus 3.2, method FPH), “(6.1) fold”; in assay [5] (Virus 3.2, method RVA), “(2.0) fold”; in assay [5] (Virus 3.3, method FPH), “(5.5) fold”; in assay [6] (Virus 4.1, method RVA), “(>21) fold”. For the same compound, the fold resistance result in assay [6] (Virus 4.2, method RVA) is reported as “(17) fold”; in assay [6] (Virus 4.3, method RVA), “(>21) fold”; in assay [7] (Virus 5.1, method FPH), “(14) fold”; in assay [7] (Virus 5.2, method RVA), “(6.6) fold”; in assay [8] (method FPH (reference)), “(1.0) fold”; in assay [8] (method RVA (reference)), “(1.0) fold”. Further, the “fold higher susceptibility when generated by RVA than when generated by FPH” value in assay [1] (Table 3A experiment) is 2.9 fold; in assay [1] (Table 3B experiment) it was 3.2 fold. Further, the “resistance, fold higher than wild-type” value in assay [2] (Table 3B experiment) is recorded as greater than 21 fold; in assay [2] (first printed value (Table 3A experiment)), 16 fold. The “difference in susceptibility between the two techniques (RVA vs FPH)” value was found to be 2.0 fold in assay [3] (Table 3B experiment) and 1.9 fold in assay [3] (first of the two printed values (Table 3A experiment)).

Turning to `Cc1c(O)cccc1C(=O)N[C@@H](CSc1ccccc1)[C@H](O)CN1C[C@H]2CCCC[C@H]2C[C@H]1C(=O)NC(C)(C)C` [NFV], the EC50 in assay [1] (setting [9]) was 70 nM; in assay [1] (setting [10]), 26.9 nM; in assay [2], 70.8 nM; in assay [3] (Table 3A, Virus 3, method FPH), 591 nM; in assay [3] (Table 3A, Virus 3, method RVA), 390 nM; in assay [4] (HXB2 wild type), 29.9 nM. In addition, the fold resistance entry is listed as “(2.3) fold” in assay [1] (Table 3A, Virus 1, method FPH); “(0.90) fold” in assay [1] (Table 3A, Virus 1, method RVA); “(2.4) fold” in assay [2]; “(20) fold” in assay [3] (Table 3A, Virus 3, method FPH); “(13) fold” in assay [3] (Table 3A, Virus 3, method RVA); “(1.0) fold” in assay [4].

Consider `CC(C)c1nc(CN(C)C(=O)N[C@H](C(=O)N[C@@H](Cc2ccccc2)C[C@H](O)[C@H](Cc2ccccc2)NC(=O)OCc2cncs2)C(C)C)cs1` [RTV], for which the concentration for a half-maximal effect (EC50) came out at 205 nM in assay [1] (setting [9]); 90.4 nM in assay [1] (setting [10]); 454 nM in assay [2]; 1790 nM in assay [3] (Table 3A, Virus 3, method FPH); 1400 nM in assay [3] (Table 3A, Virus 3, method RVA); 65.1 nM in assay [4] (HXB2 wild type). Also, the fold resistance result in assay [1] (Table 3A, Virus 1, method FPH) is on record as “(3.1) fold”; in assay [1] (Table 3A, Virus 1, method RVA), “(1.4) fold”; in assay [2] it was “(7.0) fold”; in assay [3] (Table 3A, Virus 3, method FPH), “(27) fold”; in assay [3] (Table 3A, Virus 3, method RVA) it was “(22) fold”; in assay [4], “(1.0) fold”.

In the case of `CC(C)(C)NC(=O)[C@@H]1C[C@@H]2CCCC[C@@H]2CN1C[C@@H](O)[C@H](Cc1ccccc1)NC(=O)[C@H](CC(N)=O)NC(=O)c1ccc2ccccc2n1` [SQV], the 50% effective concentration (EC50) in assay [1] (setting [9]) stood at 13.1 nM; in assay [1] (setting [10]), 6.56 nM; in assay [2], 9.06 nM; in assay [3] (Table 3A, Virus 3, method FPH), 16.4 nM; in assay [3] (Table 3A, Virus 3, method RVA), 13.7 nM; in assay [4] (HXB2 wild type) it was 13.1 nM. Also, the fold resistance result is given as “(1.0) fold” in assay [1] (Table 3A, Virus 1, method FPH); “(0.5) fold” in assay [1] (Table 3A, Virus 1, method RVA); “(0.69) fold” in assay [2]; “(1.3) fold” in assay [3] (Table 3A, Virus 3, method FPH); “(1.0) fold” in assay [3] (Table 3A, Virus 3, method RVA); “(1.0) fold” in assay [4].
